Read-outs that look alike come from different tables or passages of the source.
How the values were obtained:
[1] = Stability in fresh human whole blood; type: in vitro ADME; details: 10 μM, up to 120 min, FIG. 5
Method: The stability of selected compounds in fresh human whole blood and in human liver S9 fraction was determined in incubations containing 10 μM test compound. After incubations of 0, 30, 60 min, and up to 120 min, aliquots were removed and immediately extracted with 3 volumes of ice-cold methanol/acetonitrile (1:1, v/v). Extracts were centrifuged and supernatants were analyzed by LC-MS/MS for concentrations of unchanged test compound and potential metabolites.

[2] = system: micro-patterned human hepatocyte co-cultures; experiment: Human Hepatocyte Co-Cultures (HepatoPac): cytotoxicity and hepatocyte health; type: cell-based; details: for IC50: Homo sapiens, Hepatocyte
Method: Cytotoxicity and hepatocyte health were assessed in triplicate by measuring ALT leakage, urea production, albumin secretion and cellular ATP contents in micro-patterned human hepatocyte co-cultures (HepatoPac®, Hepregen Corporation) prepared by seeding cryopreserved human hepatocytes (single donor) and 3T3 J2 mouse fibroblasts in microtiter plates according to procedures established by Hepregen. Culture media was replaced with fresh media containing TA, test article, (0, 1, 10 or 30 μM) every 2 or 3 days through day 16. […] Cellular ATP levels were measured on days 9 and 21. ATP signals in stromal-only control cultures (murine 3T3 fibroblasts) were subtracted from those of human HepatoPac co-cultures to obtain hepatocyte-specific effects. See, Table 4, 5 and 6 below.

[3] = iPS Cardiomyocyte Assay; type: cell-based, human; details: human, iPS cardiomyocytes
Method: iPS Cardiomyocytes (Cellular Dynamics) were seeded in microliter plates at 1.5×10^4 cells per well. After 48-hr incubation, cells were washed and maintenance medium containing serially diluted TA was added in triplicate. After incubating for an additional 3 days, cell viability was measured by staining with XTT and CC50 values were calculated.

[4] = system: host cell lines; experiment: Toxicity in host cell lines; type: cell-based; details: at concentrations up to 100 μM
[5] = Human Bone Marrow Progenitor Cell Assay; type: cell-based; details: human, fresh human bone marrow progenitor cells; read-out: CC50 in human bone marrow stem cells
Method: Fresh human bone marrow progenitor cells (Invitrogen) suspended in either BFU-E or GM-CSF-specific culture medium were added, at 10^5 cells/well, to triplicate serial dilutions of TA in 6-well plates. After 14-day incubations, colony counts were used to determine CC50 values. BFU-E colonies were confirmed using the benzidene technique.

[6] = system: other RNA or DNA viruses; experiment: Activity against other RNA or DNA viruses; type: cell-based; details: at concentrations up to 100 μM
[7] = molecular target: T1, human DNA polymerase γ (Homo sapiens, UniProt P54098); experiment: Human DNA Polymerase Assays; type: biochemical; details: at concentrations up to 100 μM
T1 construct: purchased CHIMERx
T1 sequence (P54098 1-1239): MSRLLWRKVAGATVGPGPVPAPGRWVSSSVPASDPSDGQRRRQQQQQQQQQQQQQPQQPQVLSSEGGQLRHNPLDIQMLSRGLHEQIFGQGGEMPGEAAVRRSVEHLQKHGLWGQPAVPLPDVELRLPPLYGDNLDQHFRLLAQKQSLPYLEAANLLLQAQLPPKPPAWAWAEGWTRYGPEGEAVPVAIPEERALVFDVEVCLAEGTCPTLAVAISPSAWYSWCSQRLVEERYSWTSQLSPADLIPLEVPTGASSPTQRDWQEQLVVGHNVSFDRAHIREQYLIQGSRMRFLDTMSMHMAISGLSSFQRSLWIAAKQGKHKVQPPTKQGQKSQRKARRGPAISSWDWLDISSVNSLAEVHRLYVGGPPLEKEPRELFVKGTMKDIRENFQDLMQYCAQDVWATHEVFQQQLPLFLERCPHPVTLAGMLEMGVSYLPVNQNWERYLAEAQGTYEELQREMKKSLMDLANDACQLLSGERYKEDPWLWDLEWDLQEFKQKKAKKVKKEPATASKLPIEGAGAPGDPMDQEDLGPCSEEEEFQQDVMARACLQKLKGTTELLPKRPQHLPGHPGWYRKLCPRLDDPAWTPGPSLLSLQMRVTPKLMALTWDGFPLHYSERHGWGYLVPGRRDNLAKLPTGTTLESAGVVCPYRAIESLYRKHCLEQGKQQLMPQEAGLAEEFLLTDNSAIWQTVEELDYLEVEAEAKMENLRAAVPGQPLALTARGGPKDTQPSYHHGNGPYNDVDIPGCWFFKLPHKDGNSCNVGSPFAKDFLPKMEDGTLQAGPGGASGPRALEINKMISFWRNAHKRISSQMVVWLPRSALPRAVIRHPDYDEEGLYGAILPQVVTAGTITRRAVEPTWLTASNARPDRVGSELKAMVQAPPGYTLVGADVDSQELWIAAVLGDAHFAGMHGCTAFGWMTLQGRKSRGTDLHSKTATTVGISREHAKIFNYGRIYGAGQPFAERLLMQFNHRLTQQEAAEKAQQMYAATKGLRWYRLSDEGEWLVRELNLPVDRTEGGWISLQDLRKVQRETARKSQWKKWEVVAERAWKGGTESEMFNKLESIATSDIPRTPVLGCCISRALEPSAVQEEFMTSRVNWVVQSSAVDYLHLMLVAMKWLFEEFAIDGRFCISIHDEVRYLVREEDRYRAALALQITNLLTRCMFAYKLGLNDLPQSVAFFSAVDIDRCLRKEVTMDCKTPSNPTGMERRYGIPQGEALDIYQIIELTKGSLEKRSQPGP
Method: Inhibition of human DNA polymerases α, β and γ (CHIMERx) was determined in triplicate in reaction mixtures of serially diluted TA, 0.05 mM dCTP, dTTP, and dATP, 10 μCi [^32P]-α-dGTP (800 Ci/mmol), 20 μg activated calf thymus DNA and additional reagents specific for each polymerase.

SMILES: CNc1nc(N)nc2c1ncn2[C@@H]1OC(CO[P@@](=O)(N[C@@H](C)C(=O)OC(C)C)Oc2ccccc2)[C@@H](O)[C@@]1(C)F (some centres unmarked) [Compound 5-2]
- stability in human blood [1]: excellent stability
- IC50 ([2]; 48 h, Table 5, Day 2, read-out: Effect on Albumin Secretion, 50% Inhibitory Concentration (IC50)): > 30 µM
- IC50 ([2]; 48 h, Table 6, Day 2, read-out: Effect on Albumin Secretion, 50% Inhibitory Concentration (IC50)): > 30 µM
- IC50 ([2]; 120 h, Table 5, Day 5, read-out: Effect on Albumin Secretion, 50% Inhibitory Concentration (IC50)): > 30 µM
- IC50 ([2]; 120 h, Table 6, Day 5, read-out: Effect on Albumin Secretion, 50% Inhibitory Concentration (IC50)): > 30 µM
- IC50 ([2]; 168 h, Table 5, Day 7, read-out: Effect on Albumin Secretion, 50% Inhibitory Concentration (IC50)): > 30 µM
- IC50 ([2]; 168 h, Table 6, Day 7, read-out: Effect on Albumin Secretion, 50% Inhibitory Concentration (IC50)): > 30 µM
- IC50 ([2]; 216 h, Day 9, read-out: Effect on Cellular ATP Concentrations, 50% Inhibitory Concentration (IC50)): > 30 µM
- IC50 ([2]; 216 h, Table 5, Day 9, read-out: Effect on Albumin Secretion, 50% Inhibitory Concentration (IC50)): > 30 µM
- IC50 ([2]; 216 h, Table 6, Day 9, read-out: Effect on Albumin Secretion, 50% Inhibitory Concentration (IC50)): > 30 µM
- IC50 ([2]; 288 h, Table 6, Day 12, read-out: Effect on Albumin Secretion, 50% Inhibitory Concentration (IC50)): > 30 µM
- IC50 ([2]; 384 h, Table 6, Day 16, read-out: Effect on Albumin Secretion, 50% Inhibitory Concentration (IC50)): 24.2 µM
- IC50 ([2]; 504 h, Day 21, read-out: Effect on Cellular ATP Concentrations, 50% Inhibitory Concentration (IC50)): 12.8 µM
- IC50 ([2]; 504 h, Table 6, Day 21, read-out: Effect on Albumin Secretion, 50% Inhibitory Concentration (IC50)): 14.5 µM
- signs of cytotoxicity by ALT leakage, albumin secretion, urea production and cellular ATP content ([2]; concentrations up to 30 μM, up to 12 days): no signs of cytotoxicity
- cytotoxicity with extended exposure ([2]; up to 21 days of culture): minor indications of cytotoxicity

SMILES: CC(C)OC(=O)[C@H](C)N[P@](=O)(OCC1O[C@@H](n2cnc3c(N(C)C)nc(N)nc32)[C@](C)(F)[C@@H]1O)Oc1ccccc1 (stereo partly drawn) [Compound 25, isopropyl ((((S)-(2R,3R,4R,5R)-5-(2-amino-6-(dimethylamino)-9H-purin-9-yl)-4-fluoro-3-hydroxy-4-methyltetrahydrofuran-2-yl)methoxy)-phenoxy-phosphoryl)-L-alaninate]
- CC50 at 3 day [3]: > 100 µM
- toxicity in all host cell lines [4]: no toxicity
- CC50 at 14 day [5]: > 100 µM
- activity against other RNA or DNA viruses [6]: no activity
- inhibition of human DNA polymerase γ [7]: No inhibition

SMILES: CC(C)OC(=O)[C@H](C)N[P@](=O)(OCC1O[C@@H](n2cnc3c(N(C)C4CC4)nc(N)nc32)[C@](C)(F)[C@@H]1O)Oc1ccccc1 (stereo partly drawn) [Compound 27, isopropyl ((((S)-(2R,3R,4R,5R)-5-(2-amino-6-(methylcyclopropanamino)-9H-purin-9-yl)-4-fluoro-3-hydroxy-4-methyltetrahydrofuran-2-yl)methoxy)-phenoxy-phosphoryl)-L-alaninate]
- CC50 at 3 day [3]: > 100 µM
- toxicity in all host cell lines [4]: no toxicity
- CC50 at 14 day [5]: > 100 µM
- activity against other RNA or DNA viruses [6]: no activity
- inhibition of human DNA polymerase γ [7]: No inhibition

Source: patent US12084473B2, “β-D-2′-deoxy-2′-α-fluoro-2′-β-C-substituted-2-modified-N6-substituted purine nucleotides for HCV treatment” (Atea Pharmaceuticals, Inc., priority 2015, dated 2024)
